Data published in patent US7217726B2, “Antibacterial agents” (Orchid Chemicals & Pharmaceuticals Limited, priority 2002, dated 2007).
Converted amounts (≈) assume the structure as drawn.

How the values were obtained:
[1] = test system: S. epidermidis MRO 02046; test: Agar Dilution Method MIC, S. epidermidis MRO 02046; assay type: cell-based; conditions: Staphylococcus epidermidis, MRO02046, Mueller Hinton Agar, 35° Celsius, 20 hours, read-out: Minimum Inhibitory Concentration (MIC in μg/ml)
Method: (§1) Briefly, the compounds of invention were weighed, dissolved in Dimethyl Sulfoxide, serially diluted in the same solvent and then incorporated into molten Mueller Hinton Agar in a petridish before solidification, with each petridish containing a different concentration of a compound.
(§2) The Bacterial Inoculum was prepared by touching the tops of 3 to 5 well isolated bacterial colonies with the same morphological appearance from an 18 hour old culture with an inoculating loop, transfering the growth to a tube containing 5 ml of normal saline and adjusting the turbidity of the saline suspension to 0.5 Macfarland Turbidity Standard equivalent to a bacterial population of 1.5×10^8 colony forming units (CFU) per millilitre of suspension.
(§3) The bacterial inoculum prepared in the above manner was inoculated onto petri dishes containing Mueller Hinton Agar which had earlier been incorporated with different dilutions of the compounds of invention by a Multipoint Inoculator with each inoculum spot containing approximately 1×10^4 colony forming units (CFU) of bacteria.
(§4) The inoculated petridishes were incubated at 35° Celsius in an ambient atmosphere for 20 hours. Petridishes containing different concentrations of Vancomycin and Oxacillin and inoculated with Staphylococcus aureus, Coagulase Negative Staphylococci and Enterococci were incubated for 24 hours.

[2] = test system: S. aureus ATCC 29213; test: Agar Dilution Method MIC, S. aureus ATCC 29213; assay type: cell-based; conditions: Staphylococcus aureus, ATCC29213, Mueller Hinton Agar, 35° Celsius, 20 hours, read-out: Minimum Inhibitory Concentration (MIC in μg/ml)
Method: as §1, §2, §3, §4

[3] = test system: S. aureus ATCC 43300; test: Agar Dilution Method MIC, S. aureus ATCC 43300; assay type: cell-based; conditions: Staphylococcus aureus, ATCC43300, Mueller Hinton Agar, 35° Celsius, 20 hours, read-out: Minimum Inhibitory Concentration (MIC in μg/ml)
Method: as §1, §2, §3, §4

[4] = test system: M. catarrhalis ATCC 43628; test: Agar Dilution Method MIC, M. catarrhalis ATCC 43628; assay type: cell-based, Morexella catarrhalis; conditions: Moraxella catarrhalis, ATCC43628, Mueller Hinton Agar, 35° Celsius, 20 hours, read-out: Minimum Inhibitory Concentration (MIC in μg/ml)
Method: as §1, §2, §3, §4

[5] = test system: E. faecalis ATCC 29212; test: Agar Dilution Method MIC, E. faecalis ATCC 29212; assay type: cell-based; conditions: Enterococcus faecalis, ATCC29212, Mueller Hinton Agar, 35° Celsius, 20 hours, read-out: Minimum Inhibitory Concentration (MIC in μg/ml)
Method: as §1, §2, §3, §4

[6] = test system: S. aureus MRO 00048; test: Agar Dilution Method MIC, S. aureus MRO 00048; assay type: cell-based; conditions: Staphylococcus aureus, MRO00048, Mueller Hinton Agar, 35° Celsius, 20 hours, read-out: Minimum Inhibitory Concentration (MIC in μg/ml)
Method: as §1, §2, §3, §4

[7] = test system: S. aureus MRO 00001; test: Agar Dilution Method MIC, S. aureus MRO 00001; assay type: cell-based; conditions: Staphylococcus aureus, MRO00001, Mueller Hinton Agar, 35° Celsius, 20 hours, read-out: Minimum Inhibitory Concentration (MIC in μg/ml)
Method: as §1, §2, §3, §4

[8] = test system: E. faecalis ATCC 51299; test: Agar Dilution Method MIC, E. faecalis ATCC 51299; assay type: cell-based; conditions: Enterococcus faecalis, ATCC51299, Mueller Hinton Agar, 35° Celsius, 20 hours, read-out: Minimum Inhibitory Concentration (MIC in μg/ml)
Method: as §1, §2, §3, §4

[9] = test system: E. fecalis MRO 04045; test: Agar Dilution Method MIC, E. fecalis MRO 04045; assay type: cell-based; conditions: Enterococcus faecalis, MRO04045, Mueller Hinton Agar, 35° Celsius, 20 hours, read-out: Minimum Inhibitory Concentration (MIC in μg/ml)
Method: as §1, §2, §3, §4

[10] = test system: M. catarrhalis ATCC 43627; test: Agar Dilution Method MIC, M. catarrhalis ATCC 43627; assay type: cell-based, Morexella catarrhalis; conditions: Moraxella catarrhalis, ATCC43627, Mueller Hinton Agar, 35° Celsius, 20 hours, read-out: Minimum Inhibitory Concentration (MIC in μg/ml)
Method: as §1, §2, §3, §4

[11] = test system: S. aureus MRO 00003; test: Agar Dilution Method MIC, S. aureus MRO 00003; assay type: cell-based; conditions: Staphylococcus aureus, MRO00003, Mueller Hinton Agar, 35° Celsius, 20 hours, read-out: Minimum Inhibitory Concentration (MIC in μg/ml)
Method: as §1, §2, §3, §4

[12] = test system: S. aureus MRO 00059; test: Agar Dilution Method MIC, S. aureus MRO 00059; assay type: cell-based; conditions: Staphylococcus aureus, MRO00059, Mueller Hinton Agar, 35° Celsius, 20 hours, read-out: Minimum Inhibitory Concentration (MIC in μg/ml)
Method: as §1, §2, §3, §4

[13] = test system: S. aureus MRO 00055; test: Agar Dilution Method MIC, S. aureus MRO 00055; assay type: cell-based; conditions: Staphylococcus aureus, MRO00055, Mueller Hinton Agar, 35° Celsius, 20 hours, read-out: Minimum Inhibitory Concentration (MIC in μg/ml)
Method: as §1, §2, §3, §4

[14] = test system: M. catarrhalis ATCC 43617; test: Agar Dilution Method MIC, M. catarrhalis ATCC 43617; assay type: cell-based, Morexella catarrhalis; conditions: Moraxella catarrhalis, ATCC43617, Mueller Hinton Agar, 35° Celsius, 20 hours, read-out: Minimum Inhibitory Concentration (MIC in μg/ml)
Method: as §1, §2, §3, §4

[15] = test system: S. aureus MRO 00013; test: Agar Dilution Method MIC, S. aureus MRO 00013; assay type: cell-based; conditions: Staphylococcus aureus, MRO00013, Mueller Hinton Agar, 35° Celsius, 20 hours, read-out: Minimum Inhibitory Concentration (MIC in μg/ml)
Method: as §1, §2, §3, §4

[16] = test system: S. aureus MRO 00030; test: Agar Dilution Method MIC, S. aureus MRO 00030; assay type: cell-based; conditions: Staphylococcus aureus, MRO00030, Mueller Hinton Agar, 35° Celsius, 20 hours, read-out: Minimum Inhibitory Concentration (MIC in μg/ml)
Method: as §1, §2, §3, §4

| Structure (SMILES) | MIC [1] | MIC [2] | MIC [3] | MIC [4] | MIC [5] | MIC [6] | MIC [7] | MIC [8] | MIC [9] | MIC [10] | MIC [11] | MIC [12] | MIC [13] | MIC [14] | MIC [15] | MIC [16] |
| --- | --- | --- | --- | --- | --- | --- | --- | --- | --- | --- | --- | --- | --- | --- | --- | --- |
| CC(=S)NC[C@H]1CN(c2ccc(N3CCN(C(=S)Cc4cccs4)CC3)c(F)c2)C(=O)O1 [Example 13, (S)-N-[3-[3-Fluoro-4-[4-(thiophen-2-ylthioacetyl)piperazin-1-yl]phenyl]-2-oxooxazolidin-5-ylmethyl]thioacetamide] | 0.25 µg/mL (≈ 0.507 µM) | 0.25 µg/mL (≈ 0.507 µM) | 0.5 µg/mL (≈ 1.01 µM) | 2 µg/mL (≈ 4.06 µM) | 0.5 µg/mL (≈ 1.01 µM) | 0.25 µg/mL (≈ 0.507 µM) | 0.25 µg/mL (≈ 0.507 µM) | 0.5 µg/mL (≈ 1.01 µM) | 1 µg/mL (≈ 2.03 µM) | 2 µg/mL (≈ 4.06 µM) | 1 µg/mL (≈ 2.03 µM) | 0.5 µg/mL (≈ 1.01 µM) | 1 µg/mL (≈ 2.03 µM) | 2 µg/mL (≈ 4.06 µM) | 1 µg/mL (≈ 2.03 µM) | 0.5 µg/mL (≈ 1.01 µM) |
| CC(=S)NC[C@H]1CN(c2ccc(N3CCN(C(=O)Nc4ccc([N+](=O)[O-])cc4)CC3)c(F)c2)C(=O)O1 [Example 46] | 0.25 µg/mL (≈ 0.484 µM) | 0.5 µg/mL (≈ 0.968 µM) | 0.25 µg/mL (≈ 0.484 µM) | 2 µg/mL (≈ 3.87 µM) | 0.25 µg/mL (≈ 0.484 µM) | 0.25 µg/mL (≈ 0.484 µM) | 0.25 µg/mL (≈ 0.484 µM) | 0.25 µg/mL (≈ 0.484 µM) | 0.25 µg/mL (≈ 0.484 µM) | 2 µg/mL (≈ 3.87 µM) | 0.5 µg/mL (≈ 0.968 µM) | 0.5 µg/mL (≈ 0.968 µM) | 0.5 µg/mL (≈ 0.968 µM) | 2 µg/mL (≈ 3.87 µM) | 0.5 µg/mL (≈ 0.968 µM) | 0.5 µg/mL (≈ 0.968 µM) |
| CC(=S)NC[C@H]1CN(c2ccc(N3CCN(C(=S)c4ccsc4)CC3)c(F)c2)C(=O)O1 [Example 1, (S)-N-[3-[3-fluoro-4-[4(thiophen-3-ylthiocarbonyl)piperazin-1-yl]phenyl]-2-oxooxazolidin-5-ylmethyl]thioacetamide] | 0.25 µg/mL (≈ 0.522 µM) | 0.25 µg/mL (≈ 0.522 µM) | 0.25 µg/mL (≈ 0.522 µM) | 1 µg/mL (≈ 2.09 µM) | 0.5 µg/mL (≈ 1.04 µM) | 0.25 µg/mL (≈ 0.522 µM) | 0.25 µg/mL (≈ 0.522 µM) | 0.5 µg/mL (≈ 1.04 µM) | 0.5 µg/mL (≈ 1.04 µM) | 1 µg/mL (≈ 2.09 µM) | 0.5 µg/mL (≈ 1.04 µM) | 0.5 µg/mL (≈ 1.04 µM) | 0.5 µg/mL (≈ 1.04 µM) | 1 µg/mL (≈ 2.09 µM) | 0.5 µg/mL (≈ 1.04 µM) | 0.5 µg/mL (≈ 1.04 µM) |
| CC(=S)NC[C@H]1CN(c2ccc(N3CCN(C(=S)NC(=O)c4ccccc4)CC3)c(F)c2)C(=O)O1 [Example 47] | 0.25 µg/mL (≈ 0.485 µM) | 0.5 µg/mL (≈ 0.97 µM) | 0.25 µg/mL (≈ 0.485 µM) | – | 0.25 µg/mL (≈ 0.485 µM) | 0.25 µg/mL (≈ 0.485 µM) | 0.25 µg/mL (≈ 0.485 µM) | 0.25 µg/mL (≈ 0.485 µM) | 0.25 µg/mL (≈ 0.485 µM) | – | 0.5 µg/mL (≈ 0.97 µM) | 0.25 µg/mL (≈ 0.485 µM) | 0.5 µg/mL (≈ 0.97 µM) | – | 0.5 µg/mL (≈ 0.97 µM) | 0.5 µg/mL (≈ 0.97 µM) |
| CC(=S)NC[C@H]1CN(c2ccc(N3CCN(C(=S)Nc4ccc([N+](=O)[O-])cc4)CC3)c(F)c2)C(=O)O1 [Example 45, (S)-N-[3-[3-Fluoro-4-(4-(4-nitrophenyl)thiocarbamidopiperazin-1-yl)phenyl]-2-oxooxazolidin-5-methyl]thioacetamide] | 0.25 µg/mL (≈ 0.469 µM) | 0.5 µg/mL (≈ 0.939 µM) | 0.25 µg/mL (≈ 0.469 µM) | – | 0.25 µg/mL (≈ 0.469 µM) | 0.25 µg/mL (≈ 0.469 µM) | 0.25 µg/mL (≈ 0.469 µM) | 0.25 µg/mL (≈ 0.469 µM) | 0.25 µg/mL (≈ 0.469 µM) | – | 0.5 µg/mL (≈ 0.939 µM) | 0.5 µg/mL (≈ 0.939 µM) | 0.5 µg/mL (≈ 0.939 µM) | – | 0.5 µg/mL (≈ 0.939 µM) | 0.5 µg/mL (≈ 0.939 µM) |
